Laboratory results published in patent US8865623B2, “Herbicidally active cyclic diones and derivatives thereof, processes for their preparation, compositions, and method of controlling weeds” (Syngenta Limited, priority 2009, dated 2014).

How the values were obtained:
Assay type in all cases: in vivo
[1] = system: Alopecurus myosuroides (ALOMY); assay: Pre-emergence herbicidal activity, glasshouse pot test; details: Alopecurus myosuroides, 312 h; Rate 250 g/ha; pre-emergence spray; evaluated after 13 days; read-out: Pre-emergence activity ALOMY (100=total damage to plant; 0=no damage to plant)
Procedure, shortened: (§1)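 After sowing in standard soil, pots were cultivated for one day (pre-emergence) or eight days (post-emergence), then sprayed. Plants were watered twice daily in the glasshouse, and damage was rated 13 days after treatment, 0 being none and 100 total.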

[2] = system: Avena fatua (AVEFA); assay: as above; details: Avena fatua, 312 h; Rate 250 g/ha; pre-emergence spray; evaluated after 13 days; read-out: Pre-emergence activity AVEFA (100=total damage to plant; 0=no damage to plant)
Procedure, shortened: as §1

[3] = system: Lolium perenne (LOLPE); assay: as above; details: Lolium perenne, 312 h; Rate 250 g/ha; pre-emergence spray; evaluated after 13 days; read-out: Pre-emergence activity LOLPE (100=total damage to plant; 0=no damage to plant)
Procedure, shortened: as §1

[4] = system: Echinochloa crus-galli (ECHCG); assay: as above; details: Echinochloa crus-galli, 312 h; Rate 250 g/ha; pre-emergence spray; evaluated after 13 days; read-out: Pre-emergence activity ECHCG (100=total damage to plant; 0=no damage to plant)
Procedure, shortened: as §1

[5] = system: Alopecurus myosuroides (ALOMY); assay: Post-emergence herbicidal activity, glasshouse pot test; details: Alopecurus myosuroides, 312 h, rate 250 g/ha, evaluated after 13 days, glasshouse, read-out: Post-emergence activity ALOMY (100=total damage to plant; 0=no damage to plant)
Procedure, shortened: as §1

[6] = system: Avena fatua (AVEFA); assay: as above; details: Avena fatua, 312 h, rate 250 g/ha, evaluated after 13 days, glasshouse, read-out: Post-emergence activity AVEFA (100=total damage to plant; 0=no damage to plant)
Procedure, shortened: as §1

[7] = system: Lolium perenne (LOLPE); assay: as above; details: Lolium perenne, 312 h, rate 250 g/ha, evaluated after 13 days, glasshouse, read-out: Post-emergence activity LOLPE (100=total damage to plant; 0=no damage to plant)
Procedure, shortened: as §1

[8] = system: Echinochloa crus-galli (ECHCG); assay: as above; details: Echinochloa crus-galli, 312 h, rate 250 g/ha, evaluated after 13 days, glasshouse, read-out: Post-emergence activity ECHCG (100=total damage to plant; 0=no damage to plant)
Procedure, shortened: as §1

SMILES	pest or weed control at 250 g/ha [1] [%]	pest or weed control at 250 g/ha [2] [%]	pest or weed control at 250 g/ha [3] [%]	pest or weed control at 250 g/ha [4] [%]	pest or weed control at 250 g/ha [5] [%]	pest or weed control at 250 g/ha [6] [%]	pest or weed control at 250 g/ha [7] [%]	pest or weed control at 250 g/ha [8] [%]
CCc1ccc(Oc2nc(F)c(Cl)c(OC)c2Cl)cc1C1=C(O)C(C)(C)OC(C)(C)C1=O [Example A-222]	0	0	0	0	20	20	30	30
CCc1ccc(Oc2ccc3ccccc3n2)cc1C1=C(O)C(C)(C)OC(C)(C)C1=O [Example A-223]	80	50	90	100	100	60	90	100
CCc1ccc(Oc2ccc(Cl)cc2C#N)cc1C1=C(O)C(C)(C)OC(C)(C)C1=O [Example A-224]	20	10	30	20	50	50	70	70
CCc1ccc(Oc2ccc(Br)cc2C#N)cc1C1=C(O)C(C)(C)OC(C)(C)C1=O [Example A-225]	0	0	10	60	60	50	70	90
CCc1ccc(Oc2ccc(Cl)cc2[N+](=O)[O-])cc1C1=C(O)C(C)(C)OC(C)(C)C1=O [Example A-226]	0	10	30	60	60	60	60	100
CCc1ccc(Oc2ccc(Br)cc2[N+](=O)[O-])cc1C1=C(O)C(C)(C)OC(C)(C)C1=O [Example A-227]	30	20	60	80	70	60	70	90
CCc1ccc(Oc2nc3cc(Cl)ccc3s2)cc1C1=C(O)C(C)(C)OC(C)(C)C1=O [Example A-229]	30	0	60	70	90	10	100	100
CCc1ccc(Oc2ccc(F)cc2[N+](=O)[O-])cc1C1=C(O)C(C)(C)OC(C)(C)C1=O [Example A-230]	0	0	0	20	20	60	40	80
CCc1ccc(Oc2cnc3cc(Cl)ccc3n2)cc1C1=C(O)CC2(CCOCC2)CC1=O [Example A-233]	70	70	90	100	100	100	100	100
CCc1ccc(Oc2ccc(Br)cc2)cc1C1=C(O)[C@@H]2CC[C@](C)(C1=O)C2(C)C [Example A-234]	70	40	90	100	80	90	80	100
CCc1ccc(Oc2ccc3cc(Cl)ccc3n2)cc1C1=C(O)[C@@H]2CC[C@](C)(C1=O)C2(C)C [Example A-235]	50	30	70	100	90	100	100	100
CCc1ccc(Oc2nc3ccc(Cl)cc3[n+]([O-])n2)cc1C1=C(O)C(C)(C)OC(C)(C)C1=O [Example A-236]	40	20	20	80	100	100	30	100
CCc1ccc(Oc2nnc3cc(Cl)ccc3n2)cc1C1=C(O)C(C)(C)OC(C)(C)C1=O [Example A-237]	10	10	20	40	10	10	10	70
CCc1ccc(Oc2ccc(Br)cc2F)cc1C1=C(O)[C@@H]2CC[C@](C)(C1=O)C2(C)C [Example A-238]	60	40	90	100	70	90	90	100
CCc1ccc(Oc2ccc(F)cc2)cc1C1=C(O)[C@@H]2CC[C@](C)(C1=O)C2(C)C [Example A-239]	20	0	60	90	20	10	30	70
CCc1ccc(Oc2ccc(Br)cc2Cl)cc1C1=C(O)[C@@H]2CC[C@](C)(C1=O)C2(C)C [Example A-240]	30	0	70	70	30	40	60	70
CCc1ccc(Oc2ccc(Br)c(Cl)c2)cc1C1=C(O)[C@@H]2CC[C@](C)(C1=O)C2(C)C [Example A-241]	30	0	70	80	40	70	60	90
CCc1ccc(Oc2ccc(Br)cc2Cl)cc1C1=C(O)[C@H]2CC[C@H](C2)C1=O [Example A-244]	20	0	70	90	60	70	80	90
